Laboratory results published in PMC9597602, “Metal Complexes as Antifungals? From a Crowd-Sourced Compound Library to the First In Vivo Experiments” (JACS Au, 2022).
Like-named read-outs stand apart in the source and are kept apart here.

Tests used:
[1] = test system: Acinetobacter baumannii ATCC 19606 type strain; assay: CO-ADD antibacterial MIC assay; assay type: cell-based; conditions: initial CO-ADD dose-response screening; ≥80% growth inhibition
Outline: (§1)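 Strains grown overnight in cation-adjusted Mueller Hinton broth at 37 °C, diluted 40-fold and regrown 1.5–3 h to mid-log, then seeded at 5 × 10^5 CFU/mL with compound. After 18 h static incubation at 37 °C, OD600 was read; MIC is the lowest concentration giving ≥80% growth inhibition.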

[2] = test system: Escherichia coli ATCC 25922 FDA control strain; assay: CO-ADD antibacterial MIC assay; assay type: cell-based; conditions: initial CO-ADD dose-response screening; ≥80% growth inhibition
Outline: as §1

[3] = test system: Pseudomonas aeruginosa ATCC 27853 QC control strain; assay: CO-ADD antibacterial MIC assay; assay type: cell-based; conditions: initial CO-ADD dose-response screening; ≥80% growth inhibition
Outline: as §1

[4] = test system: methicillin-resistant Staphylococcus aureus ATCC 43300; assay: CO-ADD antibacterial MIC assay; assay type: cell-based; conditions: initial CO-ADD dose-response screening; ≥80% growth inhibition
Outline: as §1

[5] = test system: Candida albicans ATCC 90028 NCCLS11; assay: Antifungal MIC assay; assay type: cell-based; conditions: for MIC50 Candida albicans ATCC 90028: 50% inhibition, MIC score 2; for MIC Ca: initial CO-ADD dose-response screening, ≥80% growth inhibition
Outline: (§2)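 Colonies from 3-day YPD plates (30 °C) were suspended, diluted into YNB and added to compound plates at a final density of 2.5 × 10^3 CFU/mL. After 36 h at 35 °C without agitation, growth inhibition of ≥80% defined the MIC. Two technical replicates, 2–4 independent runs.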

[6] = test system: Cryptococcus neoformans H99 ATCC 208821 type strain; assay: Antifungal MIC assay; assay type: cell-based; conditions: for MIC / MIC50 Cryptococcus neoformans ATCC 208821 / MIC Cryptococcus neoformans ATCC 208821: extended panel; for MIC / MIC Cryptococcus neoformans ATCC 208821: second batch, ≥80 or ≥50% inhibition; for MIC: read-out: MIC* Cryptococcus neoformans ATCC 208821; for MIC50 Cryptococcus neoformans ATCC 208821: 50% inhibition, MIC score 2; for MIC Cn: initial CO-ADD dose-response screening, ≥80% growth inhibition
Outline: as §2

[7] = test system: HEK-293 human embryonic kidney cells ATCC CRL-1573
Method: The cells were incubated together with the compounds for 20 h at 37 °C in 5% CO2. […] Tamoxifen (Sigma T5648) was used as internal control on each plate.

[8] = test system: Candida glabrata ATCC 90030 NCCLS 84; assay: Antifungal MIC assay, extended panel; assay type: cell-based; conditions: extended panel, second batch; ≥80 or ≥50% inhibition
Outline: as §2

[9] = test system: Candida tropicalis ATCC 750; assay: Antifungal MIC assay, extended panel; assay type: cell-based; conditions: extended panel, second batch; ≥80 or ≥50% inhibition
Outline: as §2

[10] = test system: Cryptococcus deuterogattii ATCC 32609 VGII; assay: Antifungal MIC assay, extended panel; assay type: cell-based; conditions: extended panel, second batch; ≥80 or ≥50% inhibition
[11] = test system: Cryptococcus deuterogattii CBS7750 VGII; Serotype B; assay: Antifungal MIC assay, extended panel; assay type: cell-based; conditions: extended panel, second batch; ≥80 or ≥50% inhibition
Outline: as §2

G. mellonella larvae = assay: Galleria mellonella in vivo toxicity assay; conditions: 10 μL of the highest concentration injected, monitored 6 days
Method: Based on criteria of overall antifungal activity, cytotoxicity, and hemolysis as well as compound availability, we selected compounds Co1, Ag2, Eu1, Ir1, Pt1, Pt2, Pt4, Pt5, Au1, Au2, and Au4 to conduct a preliminary in vivo toxicity assay. […] The compounds were dissolved in DMSO and diluted to the highest possible final concentration (Table 3). The larvae were then monitored for 6 days for survival and health using the G. mellonella Health Index Scoring System.[111] […] For the other compounds, no detrimental effects could be observed in the larvae over the monitoring period. […] Nevertheless, factors such as the metabolism, excretion, and/or accumulation of the various metal complexes and their metabolites will still need to be studied more rigorously in rodent models if they are to be advanced into the preclinical pipeline.
The toxicity of compounds was tested in vivo using the G. mellonella model using our previously described methods,[61] Briefly, G. mellonella larvae were reared in a controlled environmental room at Macquarie University, Sydney, Australia, at 30 °C and 65% humidity with a 12-h light/dark cycle. Larvae (200–250 mg) were individually injected with 10 μL of chemical into the last right pro-leg using a 100 μL syringe (Hamilton Ltd.). Each compound was dissolved in DMSO at the maximum concentration given in Table 3 and also diluted in water to final concentrations of 100, 10, and 1 μM. We injected five larvae in triplicate for each of the four dilutions for each compound. Larvae injected with different dilutions of DMSO (10^–1, 10^–2, and 10^–3) were included as negative controls. Following injection, the larvae were incubated at 30 °C and monitored every 24 h for 6 days. Larval performance was assessed according to the G. mellonella Health Index Scoring System.[111] The experiments were repeated over three separate days for biological triplicates.

[12] = read-out: HEK293 CC50, ranges obtained upon retesting, new batch
[13] = extended panel, second batch, ≥80 or ≥50% inhibition
[14] = read-out: HEK CC50, initial CO-ADD screening, 20 h

Structure (SMILES)	MIC Ab [1]	MIC Ec [2]	MIC Pa [3]	MIC MRSA (Sa) [4]	MIC50 Candida albicans ATCC 90028 ([5]; extended panel) [µM]	MIC Ca [5]	MIC50 Cryptococcus neoformans ATCC 208821 [6] [µM]	MIC Cn [6]	HEK CC50 ([7]; initial CO-ADD screening, 20 h) [mg/L]	CC50 [7, 12] [µM]	MIC [8] [µM]	MIC Candida tropicalis ATCC 750 [9] [µM]	MIC Cryptococcus deuterogattii ATCC 32609 [10] [µM]	MIC Candida albicans ATCC 90028 [5, 13] [µM]	MIC Cryptococcus neoformans ATCC 208821 [6] [µM]	MIC Candida glabrata ATCC 90030 [8] [µM]	MIC Cryptococcus deuterogattii CBS7750 [11] [µM]	toxicity (G. mellonella larvae)	MIC [9] [µM]	CC50 [7, 14] [µM]	further results
COc1ccc(/C=C/C2=NN(c3ccc(C(=O)[O][Ag])cc3)C(c3ccc(OC)c(OC)c3)C2)cc1OC.COc1ccc(/C=C/C2=NN(c3ccc(C(=O)[O][Ag])cc3)C(c3ccc(OC)c(OC)c3)C2)cc1OC (racemic) [Ag1, (Ε)-1-(4-Carboxyphenyl)-5-(3,4-dimethoxyphenyl)-3-(3,4-dimethoxystyryl)-2-pyrazoline silver(I) complex]	>32 mg/L	>32 mg/L	>32 mg/L	>32 mg/L	≤ 0.006	≤0.25 mg/L	≤ 0.006	≤0.25 mg/L	>32	3 to 4	≤0.006	≤0.006 to 0.012	0.006 to 0.024								MIC ([5]; extended panel, second batch, ≥80 or ≥50% inhibition, read-out: MIC* Candida albicans ATCC 90028): ≤0.006 µM; MIC [6]: ≤0.006 µM; MIC [11]: 0.006 µM
O=C([O][Ag])c1ccc(N2N=C(/C=C/C=C/c3ccccc3)CC2/C=C/c2ccccc2)cc1.O=C([O][Ag])c1ccc(N2N=C(/C=C/C=C/c3ccccc3)CC2/C=C/c2ccccc2)cc1 (racemic) [Ag2, 1-(4-Carboxyphenyl)-3-{(1E,3E)-4-phenylbuta-1,3-dien-1-yl}-5-{(E)-styryl}-2-pyrazoline silver(I) complex]	>32 mg/L	>32 mg/L	>32 mg/L	>32 mg/L	≤0.006 to 0.098	≤0.25 mg/L	≤0.006 to 0.098	≤0.25 mg/L	>32	6 to 7		≤0.006 to 0.049	0.006 to 0.098	≤0.006 to 0.098	≤0.006 to 0.098	0.006 to 0.195	0.006 to 0.098	nontoxic			
CC(=NN=C(N)[S-])C(C)=NN=C(N)[S-].O=[N+]([O-])[O-].[Co+3].c1c[nH]cn1.c1c[nH]cn1 [Co1]	>32 mg/L	>32 mg/L	>32 mg/L	>32 mg/L		0.5 mg/L		0.5 mg/L	>32	> 100	100		0.78 to 1.56	0.78 to 1.56	0.39 to 0.78			nontoxic	0.39		MIC [11]: 1.56 µM
Cc1ccc2ccc3ccc(C)nc3c2n1.Cc1ccc2ccc3ccc(C)nc3c2n1.O=C([O][Eu]([O]C(=O)c1ccccc1F)[O]C(=O)c1ccccc1F)c1ccccc1F [Eu1]	>20 µM	>20 µM	>20 µM	>20 µM	≤0.006 to 0.012		≤ 0.006			> 200		≤0.006 to 0.049		≤0.006 to 0.012		0.024 to 0.098	0.024 to 0.098	nontoxic		> 20	MIC [6]: ≤0.006 µM; cytotoxicity: none up to stated concentration ([7]; retest): > 200 µM; MIC [10]: 0.024 µM
C1=CCCC=CCC1.[Cl][Pt][Cl] [Pt1]	>20 µM	>20 µM	>20 µM	1.25 µM		10 µM		2.5 µM		> 100	25		3.125 to 6.25	12.5 to 25	1.56 to 3.13		1.56 to 3.13	nontoxic	25	> 20	
C1=CCCC=CCC1.[I][Pt][I] [Pt2]	>20 µM	>20 µM	>20 µM	0.625 µM		10 µM		1.25 µM		> 100	50		6.25 to 12.5	12.5 to 25	1.56 to 3.13		≤0.78 to 3.13	nontoxic	50	> 20	
CC(C)C([O][Pt][Cl])C1=CCCC=CCC1 (stereo not shown) [Pt4]	>20 µM	>20 µM	>20 µM	>20 µM		10 µM		1.25 µM		> 100		12.5 to 25	3.12 to 6.25	6.25 to 12.5	≤0.78 to 1.56	12.5 to 25	≤0.78 to 1.56	nontoxic		> 20	
